Patent publication US20060063785A1, “Substituted pyrazolo[1,5-a] pyrimidines and process for making same” (priority 2004, published 2006)
Where two headings read alike, the source gives them in different places.

Tests used:
[1] = test system: 80S14 (p21-deficient) cells; assay: Determination of selectivity of compounds for p21-/- cells: IC50 in 80S14 cells (SRB); assay type: cell-based, human
Protocol: • 1. 80S14 (p21-deficient) cells were cultured in RPMI 1640 medium (Gibco/Invitrogen Life technologies) supplemented with 10% fetal bovine serum (FBS, Gibco) and 10 μg/ml gentamycin (Gibco). Cells were maintained at 37° C. under 7% CO2. • 2. Cells were plated at 6×10^4/ml (0.2 ml/well; 12,000 cells/well) in 96-well microtiter plates (Falcon or Corning/Costar) and incubated at 37° C. overnight (18-24 hours). • 3. 2-5 μl of the test agent-[200 μg/ml stock in 20% DMSO/20 mM HEPES, pH 7.5 (Gibco)] was added to each well to achieve a final concentration of 2-5 μg/ml. Cells were incubated with the test compounds for 5 days at 37° C. • 4. Surviving cells were fixed with 50 μl 50% trichloroacetic acid (Sigma; 10% final concentration) for 1 hour at 4° C. • 5. Plates were rinsed twice with water (0.3 ml per wash using MRD8 robot), and allowed to dry. • 6. Sulforhodamine B (SRB) (Sigma; 0.4% in 1% acetic acid, 50 μl per well; MRD8 robot) was added and plates kept at room temperature for 10 minutes. • 7. Excess dye was removed by washing with 1% acetic acid (3 times, 0.3 ml per wash; MRD8 robot) and allowed to dry. • 8. The dye was solubilized in Tris base (Sigma; 10 mM, 150 μl per well). Plates were kept at room temperature for 30 minutes to allow the dye to diffuse. • 9. Absorbance was measured at 540 nm. • 10. The percentage of cells surviving drug treatment relative to control wells (no drug) was determined. • 11. The difference in % cell survival between the two cell lines was calculated. • 12. Compounds producing a difference score of >50 were considered to be selective for the p21-deficient cells and were evaluated further. Determination of Selectivity of Compounds for p21−/− Cells: • 1. 80S14 cells were cultured as described above. • 2. Cells were seeded in 96-well microtiter plates at 12,000 cells/well (either 0.15 ml/well of 8×10^4 cells/ml suspension, or 0.2 ml/well of 6×10^4 cells/ml suspension). Plates were incubated at 37° C. overnight (18-24 hours). • 3. Serial dilutions of the test agent were added to each well. Dilutions were prepared either in 40% DMSO/20% methanol/20 mM HEPES, pH 7.5 (Gibco) or directly in growth medium. One of two dose ranges were used: 5 pM to 50 μM or 170 pg/ml to 10 μg/ml. Cells were incubated with the test compounds for 5 days at 37° C. • 4. Surviving cells were fixed with 50 μl 50% trichloroacetic acid (Sigma; 10% final concentration) for 1 hour at 4° C. • 5. Plates were rinsed extensively in water, and allowed to dry. • 6. Sulforhodamine B (Sigma; 0.4% in 1% acetic acid, 70 μl per well) was added and plates kept at room temperature for 10 minutes. • 7. Excess dye was removed by washing 5 times with 1% acetic acid and plates were allowed to dry. • 8. The dye was solubilized in Tris base (Sigma; 10 mM, 150 μl per well). Plates were placed on a titer plate shaker (Lab Line Instruments) for 5 minutes to allow the dye to diffuse. • 9. Absorbance was measured at 560 nm.
10. The drug concentration which inhibits cell proliferation by 50% relative to untreated controls (IC50) was determined from cytotoxicity curves.

LoVo Colon cell line = assay: Cytotoxicity assay using LoVo colon cell line (SRB, IC50); assay type: cell-based; details: read-out: Inhibition of LoVo
Protocol: Cytotoxicity Assay Using LoVo Colon Cell Line: • 1. LoVo Colon cell lines was cultured in RPMI 1640 medium (Gibco/Invitrogen Life Sciences) supplemented with 10% fetal bovine serum (FBS, Gibco) and 50 μg/ml gentamicin (Gibco). Cells were maintained at 37° C. under 7% CO2. • 2. Cells were seeded in 96-well microtiter plates (Corning/Costar) in a volume of 0.15 ml of growth medium (4000 cells/well). Plates were incubated at 37° C. overnight (18-24 hours). • 3. Serial dilutions of the test agent were added to each well. Dilutions were prepared in growth medium. One of two dose ranges was used: 5 pM to 20 μM or […] to 10 μg/ml. Cells were incubated with the test compounds for 4 days at 37° C. • 4. Surviving cells were processed using the SRB asay, as described above.
5. The drug concentration that inhibits cell proliferation by 50% relative to untreated controls (IC50) was determined from cytotoxicity curves using the LSW Toolbox graphing application.

[2] = Homo sapiens, 120 h, 80S14 (p21-deficient) cells, 5 days at 37° C., SRB, read-out: IC50 for 80S14
[3] = Cellular activity in 80S14 (p21-deficient) cells, SRB, class symbols, read-out: IC50 for 80S14
[4] = Cellular activity in LoVo cell, 4 days incubation, SRB assay

| Compound | melting point [°C] | also measured |
| --- | --- | --- |
| C/C=C(\C)CNc1cccc(-c2ccnc3c(C(=O)c4cccs4)cnn23)c1 [Example 319] | 118 to 120 | – |
| O=C(c1cccs1)c1cnn2c(-c3cccc(NCc4ccco4)c3)ccnc12 [Example 263, (7-{3-[(2-Furylmethyl)amino]phenyl}pyrazolo[1,5-a]pyrimidin-3-yl)(thien-2-yl)methanone] | 124 to 128 | – |
| CC(C)NC(=N)Nc1cccc(-c2ccnc3c(C(=O)c4cccs4)cnn23)c1 [Example 301, N-Isopropyl-N′-{3-[3-(thien-2-ylcarbonyl)pyrazolo[1,5-a]pyrimidin-7-yl]phenyl}guanidine] | > 200 | – |
| O=C(Nc1cccc(-c2ccnc3c(C(=O)c4cccs4)cnn23)c1)OCC(Cl)(Cl)Cl [Example 12, 2,2,2-trichloroethyl 3-[3-(thien-2-ylcarbonyl)pyrazolo[1,5-a]pyrimidin-7-yl]phenylcarbamate] | 197 to 200 | IC50 [1, 2]: < 1 µM |
| C=C(CC)CNc1cccc(-c2ccnc3c(C(=O)c4cccs4)cnn23)c1 [Example 323] | 79 to 82 | – |
| O=C(c1ccco1)c1cnn2c(-c3cccc(-n4cccc4)c3)ccnc12 [Example 186, 2-Furanyl[7-[3-(1H-pyrrol-1-yl)phenyl]pyrazolo[1,5-a]pyrimidin-3-yl]-methanone] | 204 to 206 | – |
| CCCCNC(=O)Nc1cccc(-c2ccnc3c(C(=O)c4cccs4)cnn23)c1 [Example 6, N-butyl-N′-{3-[3-(thien-2-ylcarbonyl)pyrazolo [1,5-a]pyrimidin-7-yl]phenyl}urea] | 158 to 160 | – |
| O=C(Nc1cccc(-c2ccnc3c(C(=O)c4cccs4)cnn23)c1)OCCCN1CCS(=O)(=O)CC1 [Example 309, 3-(1,1-Dioxidothiomorpholin-4-yl)propyl 3-[3-(thien-2-ylcarbonyl)pyrazolo[1,5-a]pyrimidin-7-yl]phenylcarbamate] | 148 to 159 | – |
| COc1ccccc1/C=C/CNc1cccc(-c2ccnc3c(C(=O)c4cccs4)cnn23)c1 [Example 288, [7-(3-{[(2E)-3-(2-Methoxyphenyl)prop-2-enyl]amino}phenyl)pyrazolo[1,5-a]pyrimidin-3-yl](thien-2-yl)methanone] | 128 to 131 | – |
| 7-{3-[2-(Cyclobutylmethyl)-2H-tetraazol-5-yl]phenyl}-3-(3,5-dimethylphenyl)pyrazolo[1,5-a]pyrimidine [Example 381] | – | IC50 [1, 3]: 1 to 10 µM; IC50 (LoVo Colon cell line; [4]): 0.1 to 1 µM |
| 3-(3,5-Dimethylphenyl)-7-[3-(2-ethyl-2H-tetrazol-5-yl)phenyllpyrazolo[1,5-a]pyrimidine [Example 384] | – | IC50 [1, 3]: 1 to 10 µM; IC50 (LoVo Colon cell line; [4]): 0.1 to 1 µM |
| CC/C=C/CNc1cccc(-c2ccnc3c(C(=O)c4cccs4)cnn23)c1 [Example 320] | 72 to 75 | – |
| O=C(Nc1cccc(-c2ccnc3c(C(=O)c4cccs4)cnn23)c1)c1ccccc1F [Example 254, 2-Fluoro-N-{3-[3-(thien-2-ylcarbonyl)pyrazolo[1,5-a]pyrimidin-7-yl]phenyl}benzamide] | 190 to 191 | – |
| O=C(c1cccs1)c1cnn2c(-c3cccc(NCC4CC=CCC4)c3)ccnc12 (stereo not shown) [Example 324, (7-{3-[(cyclohex-3-en-1-ylmethyl)emnino]phenyl}pyrazolo[1,5-a]pyrimidin-3-yl)-(thien-2-yl)-methanone] | – | IC50 [1, 3]: < 1 µM; IC50 (LoVo Colon cell line; [4]): < 0.1 µM |
| C=C(C)CNc1cccc(-c2ccnc3c(C(=O)c4cccs4)cnn23)c1 [Example 322] | 104 to 106 | – |
| O=C(c1cccs1)c1cnn2c(-c3cccc(NC(=O)N4CCOCC4)c3)ccnc12 [Example 131, N-{3-[3-(thien-2-ylcarbonyl)pyrazolo[1,5-a]pyrimidin-7-yl]phenyl}morpholine-4-carboxamide] | – | IC50 [1, 2]: 1 to 10 µM; IC50 (LoVo Colon cell line; Homo sapiens, 96 h, LoVo colon cells, 4 days at 37° C., SRB): 0.1 to 1 µM |
| CCC(C)C(C)CNc1cccc(-c2ccnc3c(C(=O)c4cccs4)cnn23)c1 (stereo not shown) [Example 318] | 84 to 86 | – |
| O=C(O)c1ccccc1C(=O)Nc1cccc(-c2ccnc3c(C(=O)c4cccs4)cnn23)c1 [Example 331, 2-[({3-[3-(Thien-2-ylcarbonyl)pyrazolo[1,5-a]pyrimidin-7-yl]phenyl}amino)carbonyl]benzoic acid] | 215 to 216 | – |
| O=C(c1cccs1)c1cnn2c(Cl)ccnc12 [Example 284, (7-Chloropyrazolo[1,5-a]pyrimidin-3-yl)(thien-2-yl)methanone] | 148 to 150 | – |
| (7-{3-[2-(Pyridin-2-ylmethyl)-2H-tetraazol-5-yl]phenyl}pyrazolo[1,5-a]pyriridin-3-yl)(thien-2-yl)methanone [Example 397] | – | IC50 [1, 3]: < 1 µM; IC50 (LoVo Colon cell line; [4]): 0.1 to 1 µM |
| O=C(Nc1cccc(-c2ccnc3c(C(=O)c4cccs4)cnn23)c1)OCCCl [Example 16, 2-chloroethyl 3-[3-(thien-2-ylcarbonyl)pyrazolo[1,5-a]pyrimidin-7-yl]phenylcarbamate] | – | IC50 ([1]; Homo sapiens, 80S14, 120 h, read-out: IC50 for 80S14 (μM)): < 1 µM; IC50 (LoVo Colon cell line; Homo sapiens, LoVo, 96 h): < 0.1 µM |
| CC(C)CC(=O)Nc1cccc(-c2ccnc3c(-c4cccc(N)c4)cnn23)c1 [Example 352, N-{3-[3-(3-Aminophenyl)pyrazolo[1,5-a]pyrimidin-7-yl]phenyl}-3-methylbutanamide] | 173 to 175 | – |
| O=C(Nc1cccc(-c2ccnc3c(C(=O)c4cccs4)cnn23)c1)c1ccncc1 [Example 201, N-{3-[3-(2-Thienylcarbonyl)pyrazolo[1,5-a]pyrimidin-7-yl]phenyl}isonicotinamide] | 212 to 215 | – |
| CC(C)NC(=NC#N)Nc1cccc(-c2ccnc3c(C(=O)c4cccs4)cnn23)c1 [Example 304, N″-Cyano-N-isopropyl-N′-{3-[3-(thien-2-ylcarbonyl)pyrazolo[1,5-a]pyrimidin-7-yl]phenyl}guanidine] | 240 to 241 | – |
